The values below come from patent publication US20130310256A1, “HERBICIDAL COMPOSITIONS COMPRISING 4-AMINO-3-CHLORO-5-FLUORO-6-(4-CHLORO-2-FLUORO-3-METHOXYPHENYL) PYRIDINE-2-CARBOXYLIC ACID OR A DERIVATIVE THEREOF AND VLCFA AND LIPID SYNTHESIS INHIBITING HERBICIDES” (DOW AGROSCIENCES LLC, priority 2008, published 2013).

For one assay, the system named is CYPRO. The experiment in a line: Example II: in-water applied weed control, transplanted paddy rice, greenhouse. In kind it is in vivo, Cyperus rotundus L. (purple nutsedge). To be noted: for Visual Weed Control CYPRO Obs: 19 DAA. The method, then:
(§1) Weed seeds or nutlets of the desired test plant species were planted in puddled soil (mud) prepared by mixing a shredded, non-sterilized mineral soil (50.5 percent silt, 25.5 percent clay, and 24 percent sand, with a pH of about 7.6 and an organic matter content of about 2.9 percent) and water at a 1:1 volumetric ratio. The prepared mud was dispensed in 365 mL aliquots into 16-ounce (oz.) non-perforated plastic pots with a surface area of 86.59 square centimeters (cm^2) leaving a headspace of 3 centimeters (cm) in each pot. Mud was allowed to dry overnight prior to planting or transplanting. Rice seeds were planted in Sun Gro MetroMix® 306 planting mixture, which typically has a pH of 6.0 to 6.8 and an organic matter content of about 30 percent, in plastic plug trays. Seedlings at the second or third leaf stage of growth were transplanted into 840 mL of mud contained in 32-oz. non-perforated plastic pots with a surface area of 86.59 cm^2 4 days prior to herbicide application. The paddy was created by filling the headspace of the pots with 2.5 to 3 cm of water. When required to ensure good germination and healthy plants, a fungicide treatment and/or other chemical or physical treatment was applied. The plants were grown for 4-22 days in a greenhouse with an approximate 14 hr photoperiod which was maintained at about 29′C during the day and 26° C. during the night. Nutrients were added as Osmocote® (19:6:12, N:P:K+ minor nutrients) at 2 g per 16-oz. pot and 4 g per 32-oz. pot. Water was added on a regular basis to maintain the paddy flood, and supplemental lighting was provided with overhead metal halide 1000-Watt lamps as necessary. The plants were employed for testing when they reached the first through fourth true leaf stage.
(§2) Treatments consisted of the acid or esters of 4-amino-3-chloro-5-fluoro-6-(4-chloro-2-fluoro-3-methoxy-phenyl)pyridine-2-carboxylic acid (compound A) each formulated as an SC (suspension concentrate) and various herbicidal components alone and in combination. Forms of compound A were applied on an acid equivalent basis.
(§3) The herbicidal components were applied on an active ingredient basis and included very long chain fatty acid (VLCFA) synthesis-inhibiting and fatty acid/lipid synthesis-inhibiting herbicides acetochlor (technical grade material), acetochlor+dichlormid formulateded as Topnotch®, pretilachlor (technical grade material), butachlor formulated as Butachlor EC, fentrazamide formulated as Fentrazamide EC, thiobencarb formulated as Bolero® 8EC, cafenstrole formulated as Himeadow® WP or Lapost® Flowable, benfuresate formulated as Full Shot®, anilofos (technical grade material), mefenacet (technical grade material), molinate (technical grade material), and thenylchlor (technical grade material).
(§4) Treatment requirements for each compound or herbicidal component were calculated based upon the rates being tested, the concentration of active ingredient or acid equivalent in the formulation, an application volume of 2 mL per component per pot, and an application area of 86.59 cm^2 per pot.
(§5) For formulated compounds, a measured amount was placed in an individual 100 or 200 mL glass vial and was dissolved in a volume of 1.25% (v/v) Agri-Dex® crop oil concentrate to obtain application solutions.
(§6) For technical grade compounds, a weighed amount was placed in an individual 100 to 200 mL glass vial and was dissolved in a volume of acetone to obtain concentrated stock solutions. […] The concentrated stock solutions obtained were diluted with an equivalent volume of an aqueous mixture containing 2.5% (v/v) crop oil concentrate so that the final application solutions contained 1.25% (v/v) crop oil concentrate.
(§7) Applications were made by injecting with a pipetter appropriate amounts of the application solutions, individually and sequentially, into the aqueous layer of the paddy. Control plants were treated in the same manner with the solvent blank. […]

Another assay deals with DIGSA. The experiment in a line: Example I: postemergence foliar-applied weed control, greenhouse. The assay is classed as in vivo, Digitaria sanguinalis (L.) Scop. (large crabgrass). To be noted: 20 DAA. The text has this:
(§8) Seeds or nutlets of the desired test plant species were planted in a soil matrix prepared by mixing a loam or sandy loam soil (e.g., 28.6 percent silt, 18.8 percent clay, and 52.6 percent sand, with a pH of about 5.8 and an organic matter content of about 1.8 percent) and calcareous grit in an 80 to 20 ratio. The soil matrix was contained in plastic pots with a volume of 1 quart and a surface area of 83.6 square centimeters (cm^2). When required to ensure good germination and healthy plants, a fungicide treatment and/or other chemical or physical treatment was applied. The plants were grown for 8-22 days in a greenhouse with an approximate 14 hr photoperiod which was maintained at about 29° C. during the day and 26° C. during the night. Nutrients (Peters Excel® 15-5-15 5-Ca 2-Mg and iron chelate) were applied in the irrigation solution as needed and water was added on a regular basis. Supplemental lighting was provided with overhead metal halide 1000-Watt lamps as necessary. The plants were employed for testing when they reached the first through fourth true leaf stage.
(§9) Treatments consisted of the acid or esters of 4-amino-3-chloro-5-fluoro-6-(4-chloro-2-fluoro-3-methoxy-phenyl)pyridine-2-carboxylic acid (Compound A), each formulated as an SC (suspension concentrate), and various herbicidal components alone and in combination. Forms of compound A were applied on an acid equivalent basis.
(§10) Other herbicidal components were applied on an active ingredient basis and included very long chain fatty acid (VLCFA) synthesis-inhibiting and fatty acid/lipid synthesis-inhibiting herbicides acetochlor (technical grade material), acetochlor+dichlormid formulated as Topnotch®, pretilachlor (technical grade material), butachlor formulated as Butachlor EC, fentrazamide formulated as Fentrazamide EC, thiobencarb formulated as Bolero® 8EC, cafenstrole formulated as Himeadow® WP or Lapost® Flowable, benfuresate formulated as Full Shot®, dimethenamid-P formulated as Outlook®, indanofan (technical grade material), flufenacet formulated as Define® DF, mefenacet (technical grade material), S-metolachlor formulated as Dual® II Magnum, pethoxamid formulated as Successor® 600, and pyroxasulfone (technical grade material).
(§11) Treatment requirements were calculated based upon the rates being tested, the concentration of active ingredient or acid equivalent in the formulation, and a 12 mL application volume at a rate of 187 L/ha.
(§12) For treatments comprised of formulated compounds, measured amounts of compounds were placed individually in 25 mL glass vials and diluted in a volume of 1.25% (v/v) Agri-Dex® crop oil concentrated to obtain 12× stock solutions. […] Application solutions were prepared by adding an appropriate amount of each stock solution (e.g., 1 mL) and diluted to the appropriate final concentrations with the addition of 10 mL of an aqueous mixture of 1.25% (v/v) crop oil concentrate so that the final spray solutions contained 1.25+/−0.05% (v/v) crop oil concentrate.
(§13) For treatments comprised of technical compounds, weighed amounts can be placed individually in 25 mL glass vials and dissolved in a volume of 97:3 v/v acetone/DMSO to obtain 12× stock solutions. […] Application solutions can be prepared by adding an appropriate amount of each stock solution (e.g., 1 mL) and diluted to the appropriate final concentrations with the addition of 10 mL of an aqueous mixture of 1.5% (v/v) crop oil concentrate so that the final spray solutions contain 1.25% (v/v) crop oil concentrate. When technical materials are used, the concentrated stock solutions can be added to the spray solutions so that the final acetone and DMSO concentrations of the application solutions are […], respectively. […]

The test system of a further assay is FIMMI. The assay can be described thus: Example II: in-water applied weed control, transplanted paddy rice, greenhouse. The assay is classed as in vivo, Fimbristylis miliacea (L.) Vahl (globe fringerush). To be noted: for Visual Weed Control FIMMI Obs: 19 DAA. The procedure:
as §1, §2, §3, §4, §5, §6, §7

The subject of the next assay is ECHOR. Described as above. To be noted: for Visual Weed Control ECHOR Obs: 19 DAA. The assay is classed as in vivo, Echinochloa oryzoides (Ard.) Fritsch (early watergrass). The method, then:
as §1, §2, §3, §4, §5, §6, §7

The next assay relates to BRAPP. The assay can be described thus: Example I: postemergence foliar-applied weed control, direct seeded rice weeds, greenhouse. To be noted: 20 DAA. The assay is classed as in vivo.
Excerpt: as §8, §9, §10, §11, §12, §13

Assay [1] concerns ECHCG. The assay can be described thus: Example II: in-water applied weed control, transplanted paddy rice, greenhouse. The assay is classed as in vivo, Echinochloa crus-galli (L.) Beauv. (barnyardgrass). To be noted: 100 gai/ha. The method, then:
as §1, §2, §3, §4, §5, §6, §7

Assay [2] deals with ECHCG. The assay can be described thus: Example I: postemergence foliar-applied weed control, greenhouse. To be noted: 20 DAA. The assay is classed as in vivo, Echinochloa crus-galli (L.) Beauv. (barnyardgrass).
Excerpt: as §8, §9, §10, §11, §12, §13

The next assay relates to LEFCH. Described as above. The assay is classed as in vivo, Leptochloa chinensis (L.) Nees (Chinese sprangletop). To be noted: 20 DAA.
Excerpt: as §8, §9, §10, §11, §12, §13

The subject of a further assay is ECHCO. The description is as above. The assay is classed as in vivo, Echinochloa colona (L.) Link (junglerice). To be noted: 20 DAA.
Excerpt: as §8, §9, §10, §11, §12, §13

As for `CCOCN(C(=O)CCl)c1c(C)cccc1CC` [Acetochlor, 2-chloro-N-(ethoxymethyl)-N-(2-ethyl-6-methylphenyl)acetamide], the “Visual Weed Control (%) - 20 DAA CYPRO Obs” value in the assay on CYPRO (100 gai/ha) was determined as 20%; in the assay with CYPRO (200 gai/ha) it was 75%. The “Visual Weed Control Obs” value in the assay on DIGSA (100 gai/ha) amounted to 20%; in the assay on DIGSA (200 gai/ha), 20%; in the assay on BRAPP (100 gai/ha) it was 20%; in the assay with BRAPP (200 gai/ha) it was 30%; in the assay on ECHCG [2] (50 gai/ha), 0%; with ECHCG [2] (100 gai/ha), 10%. In addition, the “Visual Weed Control (%) - 20 DAA FIMMI Obs” value in the assay with FIMMI (100 gai/ha) was determined as 80%; with FIMMI (200 gai/ha), 20%. In the assay on ECHOR (100 gai/ha), the “Visual Weed Control (%) - 20 DAA ECHOR Obs” value is 80%. In addition, the “Visual Weed Control (%) - 22 DAA ECHCG Obs” value in the assay with ECHCG [1] came out at 65%.

`CCN(C(=O)n1nnn(-c2ccccc2Cl)c1=O)C1CCCCC1` [Fentrazamide, 4-(2-chlorophenyl)-N-cyclohexyl-N-ethyl-4,5-dihydro-5-oxo-1H-tetrazole-1-carboxamide]: the “Visual Weed Control Obs” value was 0% in the assay with DIGSA (33.75 gai/ha); 30% in the assay on DIGSA (67.5 gai/ha); 0% in the assay on LEFCH (33.75 gai/ha); 0% in the assay on LEFCH (67.5 gai/ha); 0% in the assay on ECHCO (16.88 gai/ha); 15% in the assay with ECHCO (33.75 gai/ha). In addition, the “Visual Weed Control Obs” value in the assay with ECHCO (67.5 gai/ha) amounted to 10%; in the assay on BRAPP (16.88 gai/ha), 0%; in the assay with BRAPP (33.75 gai/ha) it was 0%; in the assay with BRAPP (67.5 gai/ha) it was 55%; with ECHCG [2] (16.88 gai/ha) it was 0%; with ECHCG [2] (33.75 gai/ha), 0%. Also, the “Visual Weed Control Obs” value with ECHCG [2] (67.5 gai/ha) is listed as 20%; in the assay with ECHCG [2] (75 gai/ha) it was 0%; with ECHCG [2] (150 gai/ha), 5%; with ECHCG [2] (300 gai/ha) it was 13%. Moreover, the “Visual Weed Control (%) - 21 DAA ECHOR Obs” value with ECHOR (50 gai/ha) worked out at 50%.

For “S-[2-[(4-chlorophenyl)(1-methylethyl)amino]-2-oxoethyl]O,O-dimethyl phosphorodithioate [Anilofos]”, the “Visual Weed Control CYPRO Obs” value in the assay on CYPRO (100 gai/ha), in the assay on CYPRO (200 gai/ha) and in the assay with CYPRO (400 gai/ha) was 0% throughout. Further, the “Visual Weed Control FIMMI Obs” value stood at 0% in the assay on FIMMI (100 gai/ha), 0% with FIMMI (200 gai/ha) and 10% in the assay with FIMMI (400 gai/ha). The results for the “Visual Weed Control ECHOR Obs” value with ECHOR (100 gai/ha) and with ECHOR (200 gai/ha) were 40% and 80%, respectively. Besides, the “Visual Weed Control ECHCG Obs” value in the assay with ECHCG [1] (19 DAA) is recorded as 20%.
